Read-outs that look alike come from different tables or passages of the source. Blank lines part the entries; values can stand above or below the molecule they belong to.
Experiments:
[1] = target: T1, BRD4 (BD2) (Homo sapiens, UniProt O60885); experiment: BRD4 inhibitory activity assay (AlphaLISA Bromodomain Assay); assay type: binding; settings: for %inh: BRD4 Lab Report; for IC50: mean of three independent experiments, read-out: BRD4 IC50 ± SD;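 for all read-outs here: in vitro inhibition of recombinant BRD4 BD2 bromodomain binding to a BET bromodomain ligand, read by AlphaLISA proximity signal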
T1 construct: BRD4 (BD2) should be thawed on ice; purchased
Procedure: The BRD4 and PLK1 inhibitory assays were carried out in vitro in accordance with the manufacturer’s instructions; BRD4 was assessed using AlphaLISA Bromodomain Assay Protocol [67], and PLK1 kinase was tested using the ADP-Glo™ Kinase Assay Protocol [68], as detailed in the Supplementary file.
The BRD4 and PLK1 inhibitory assays were carried out in vitro in accordance with the manufacturer's instructions; BRD4 was assessed using AlphaLISA Bromodomain Assay Protocol [67], and PLK1 kinase was tested using the ADP-Glo™ Kinase Assay Protocol [68],
The master mixture was prepared as follows: N wells × (2.5 µL 3x BRD Homogeneous Assay Buffer 1 + 1 µL BET Bromodomain Ligand + 1.5 µL H2O). BRD4 (BD2) should be thawed on ice. Simply, the protein-containing tube was spined to recover the full content of the tube after the firstthaw. Both proteins should be aliquoted into single-use aliquots. Immediately, any remaining undiluted protein should be stored in aliquots at -80°C. BRD4 (BD2) was diluted in 1x BRD Homogeneous Assay Buffer 1 at 4 ng/µL. The diluted proteins were kept on ice until they were used. 5 µl of the master mixture is added to each well designated for the “Positive Control”, “Test Inhibitor”, and “Blank”. For the “Substrate Control”, 2.5 µL 3x BRD Homogeneous Assay Buffer 1 + 1 µL Non-acetylated Ligand 1 + 1.5 µL H2O is added. Each “Test Inhibitor” well received 2.5 µL of inhibitor solution, while the “Positive
Control”, “Substrate Control”, and “Blank” wells received 2.5 µL of the same solution without inhibitor (inhibitor buffer). Then, the “Blank” well is filled with 2.5 µL of 1x BRD Homogeneous Assay Buffer 1. After that, GSH
10 µL per well is added, the plate isshaken, and itis incubated at room temperature for 30 minutes. Streptavidin-
10 µL is added per well and incubated at room temperature for further 15 – 30 minutes [67]. The Alpha counts were read using the EnVision® multimode plate reader with the standard Alpha detection settings.

[2] = tested on: MDA-MB-231 breast cancer cells; experiment: MTT cytotoxicity assay, MDA-MB-231; assay type: cell-based; settings: for IC50 / viability at 0.312 µM / viability at 0.625 µM / viability at 1.25 µM / viability at 2.5 µM / viability at 5 µM / viability at 10 µM: Homo sapiens; for IC50 / viability at 0.312 µM / viability at 0.625 µM / viability at 1.25 µM / viability at 2.5 µM / viability at 5 µM / viability at 10 µM / Toxicity %: MDA-MB-231
Procedure, shortened: (§1)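 Cells seeded at 1 X 10^5 cells/mL and grown 24 h at 37°C to a monolayer, then exposed to two-fold compound dilutions in RPMI with 2% serum, six doses. MTT added for 4 h at 37°C, formazan dissolved in DMSO, OD read at 560 nm minus 620 nm background. IC50 from dose-response.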

[3] = tested on: normal Vero cells; experiment: MTT cytotoxicity assay, normal Vero cells; assay type: cell-based; settings: Vero; for Toxicity %: MTT
Procedure: (§2) Using a six-dose MTT colorimetric assay [44, 66], all new synthetic compounds were tested for cytotoxicity against three cancer cell lines: MDA-MB-231 breast cancer cells, HT-29 colorectal adenocarcinoma cells, and U-937 renal cancer cells. […] These cell lines were supplied by ATCC (American Type Culture Collection) via the Holding company for biological products and vaccines (VACSERA, Cairo, Egypt). The reference control used was Methotrexate.
1.1.In-vitro cytotoxicity screening
(§3) Using a six-dose MTT colorimetric assay [44, 66], allnew synthetic compounds were tested for cytotoxicity against three cancer cell lines: MDA-MB-231 breast cancer cells,HT-29 colorectal adenocarcinoma cells, and U-937 renal
(§4) The cell lines were supplied by ATCC (American Type Culture Collection). The reference control used was Methotrexate. The cytotoxic activities of the examined compounds were quantified by inoculating a 96-well tissue culture plate with 1 X 10^5 cells / mL (100 uL/well) and incubating it at 37°C for 24 hours to develop a complete monolayer sheet. After forming a confluent sheet of cells, the growth medium was decanted from 96-well microtiter plates, and the cell monolayer was washed twice with wash media. Two-fold dilutions of tested samples were made in RPMI medium with 2% serum (maintenance medium), and 0.1 mL of each dilution was tested in different wells, with three wells serving as controls and receiving only maintenance medium. Following that, the plate was incubated at 37°C and examined. Cells were investigated for any physical signs of toxicity, such as partial or complete monolayer loss, rounding, shrinkage, or cell granulation. MTT solution was prepared (5mg/ml in PBS) (BIO BASIC CANADA INC), and 20 uL MTT solution was added to each well. After 5 minutes on a shaking table at150 rpm to thoroughly mix the MTT into the media, it was incubated (37C, 5% CO2) for 4 hours to allow the MTT to be metabolized. Formazan (MTT metabolic product) was resuspended in 200 uL DMSO and shaken at 150 rpm for 5 minutes to thoroughly mix the formazan into the solvent. The optical density was measured at 560 nm, and the background was subtracted at 620 nm. Finally, the IC50 of the test compound in comparison to the reference was calculated using the GraphPad Prism software.

[4] = MTT cytotoxicity assay, normal Vero cells; assay type: cell-based; settings: African green monkey, normal Vero cells, MTT; for IC50: mean of three independent experiments ± SD, read-out: In Vitro Cytotoxicity against Normal Cells IC50 Value, Vero Cells; for viability at 0.312 µM / viability at 0.625 µM / viability at 1.25 µM / viability at 2.5 µM / viability at 5 µM / viability at 10 µM: Vero
Procedure: as §2
1.1.In-vitro cytotoxicity screening
as §3, §4

[5] = tested on: U-937 renal cancer cells; experiment: MTT cytotoxicity assay, U-937; assay type: cell-based; settings: for IC50: Homo sapiens, U-937;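 for all read-outs here: Six-dose MTT colorimetric assay on cell monolayers, formazan absorbance read at 560 nm with 620 nm background removed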
[6] = MTT cytotoxicity assay, U-937; assay type: cell-based; settings: Homo sapiens, U-937, U937, MTT;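 note: Six-dose MTT colorimetric assay on cell monolayers, formazan absorbance read at 560 nm with 620 nm background removed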
[7] = target: human recombinant PLK1 (Homo sapiens, UniProt P53350); experiment: PLK1 inhibitory activity assay (ADP-Glo Kinase Assay); assay type: biochemical; settings: for %inh: PLK1 Lab Report; for IC50: mean of three independent experiments, read-out: PLK1 IC50 ± SD
[8] = tested on: HT-29 colorectal adenocarcinoma cells; experiment: MTT cytotoxicity assay, HT-29; assay type: cell-based; settings: for viability at 0.312 µM / viability at 0.625 µM / viability at 1.25 µM / viability at 2.5 µM / viability at 5 µM / viability at 10 µM / IC50: Homo sapiens, HT-29
Procedure, shortened: as §1

[9] = MTT, mean of three independent experiments ± SD, read-out: IC50 Value MDA-MB-231
[10] = MTT, mean of three independent experiments ± SD, read-out: IC50 Value U-937
[11] = SI = IC50 normal cells (Vero)/IC50 cancer cells
[12] = MTT, mean of three independent experiments ± SD, read-out: IC50 Value HT-29

human recombinant PLK1, sequence (P53350 whole entry): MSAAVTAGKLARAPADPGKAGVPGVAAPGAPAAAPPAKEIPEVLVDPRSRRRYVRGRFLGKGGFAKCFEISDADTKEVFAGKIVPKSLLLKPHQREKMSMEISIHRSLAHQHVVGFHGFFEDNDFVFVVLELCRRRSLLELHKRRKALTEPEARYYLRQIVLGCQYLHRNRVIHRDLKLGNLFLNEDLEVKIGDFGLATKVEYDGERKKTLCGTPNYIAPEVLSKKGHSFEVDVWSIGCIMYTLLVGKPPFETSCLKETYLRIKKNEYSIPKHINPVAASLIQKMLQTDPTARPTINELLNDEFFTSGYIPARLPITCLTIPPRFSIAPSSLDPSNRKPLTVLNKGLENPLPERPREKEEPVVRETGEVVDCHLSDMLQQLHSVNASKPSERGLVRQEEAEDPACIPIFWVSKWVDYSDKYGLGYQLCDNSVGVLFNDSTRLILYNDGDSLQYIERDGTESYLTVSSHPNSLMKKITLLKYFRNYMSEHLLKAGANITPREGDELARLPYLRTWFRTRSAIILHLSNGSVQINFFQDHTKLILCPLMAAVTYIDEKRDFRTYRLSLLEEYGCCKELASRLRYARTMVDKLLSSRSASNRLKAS

%inh ([1]; conc 0.01 (unit not given)): 30%
%inh ([1]; conc 0.1 (unit not given)): 46%
%inh ([1]; conc 1 (unit not given)): 67%
%inh ([1]; conc 10 (unit not given)): 83%
%inh ([1]; conc 100 (unit not given)): 94%
IC50 [1]: 77 ± 3 nM
%inh ([7]; conc 0.01 (unit not given)): 28%
%inh ([7]; conc 0.1 (unit not given)): 40%
%inh ([7]; conc 1 (unit not given)): 65%
%inh ([7]; conc 10 (unit not given)): 80%
%inh ([7]; conc 100 (unit not given)): 94%
IC50 [7]: 204 ± 9 nM
SMILES: COc1ccc(/C(CBr)=N\c2c(N)n(Cc3ccccc3Cl)c(=O)[nH]c2=O)cc1 [Compound 6b, (E)-6-Amino-5-((2-bromo-1-(4-methoxyphenyl)ethylidene)amino)-1-(2-chlorobenzyl) pyrimidine-2,4(1H,3H)-dione]
IC50 [2, 9]: 1000 ± 20 nM
viability at 0.312 µM ([2]; MTT, 0.312 uM): 84.9%
viability at 0.625 µM ([2]; MTT, 0.625 uM): 26.6%
viability at 1.25 µM ([2]; MTT, 1.25 uM): 10.2%
viability at 2.5 µM ([2]; MTT, 2.5 uM): 8.47%
viability at 5 µM ([2]; MTT, 5 uM): 8.55%
viability at 10 µM ([2]; MTT, 10 uM): 4.7%
IC50 ([2]; supplement viability lab report, read-out: IC50 ± SD): 630 nM
Toxicity % ([2]; MTT, 0.312 uM): 15.07%
Toxicity % ([2]; MTT, 0.625 uM): 73.45%
Toxicity % ([2]; MTT, 1.25 uM): 89.85%
Toxicity % ([2]; MTT, 2.5 uM): 91.53%
Toxicity % ([2]; MTT, 5 uM): 91.45%
Toxicity % ([2]; MTT, 10 uM): 95.3%
Selectivity Indices (SI) MDA-MB-231 ([2]; SI = IC50 normal cells (Vero)/IC50 cancer cells, ≥5 highly, >2 moderately, <2 non-selective): 1.95
IC50 ([3]; Chlorocebus sabaeus, supplement viability lab report): 2060 nM
Toxicity % ([3]; 0.312 uM): 0.9182%
Toxicity % ([3]; 0.625 uM): 0.8782%
Toxicity % ([3]; 1.25 uM): 29.74%
Toxicity % ([3]; 2.5 uM): 61.6%
Toxicity % ([3]; 5 uM): 87.19%
Toxicity % ([3]; 10 uM): 93.85%
IC50 [4]: 1950 ± 50 nM
viability at 0.312 µM [4]: 99.1%
viability at 0.625 µM [4]: 99.1%
viability at 1.25 µM [4]: 70.3%
viability at 2.5 µM [4]: 38.4%
viability at 5 µM [4]: 12.8%
viability at 10 µM [4]: 6.15%
IC50 [5, 10]: 1120 ± 20 nM
IC50 ([5]; supplement viability lab report, U937, read-out: IC50 ± SD): 970 nM
Selectivity Indices (SI) U-937 [5, 11]: 1.74
Toxicity % ([5]; U937, MTT, 0.312 uM): 0.9259%
Toxicity % ([5]; U937, MTT, 0.625 uM): 22.49%
Toxicity % ([5]; U937, MTT, 1.25 uM): 72%
Toxicity % ([5]; U937, MTT, 2.5 uM): 87.8%
Toxicity % ([5]; U937, MTT, 5 uM): 89.6%
Toxicity % ([5]; U937, MTT, 10 uM): 90.31%
viability at 0.312 µM [6]: 99.1%
viability at 0.625 µM [6]: 77.5%
viability at 1.25 µM [6]: 28%
viability at 2.5 µM [6]: 12.2%
viability at 5 µM [6]: 10.4%
viability at 10 µM [6]: 9.69%
Toxicity % ([8]; HT29, MTT, 0.312 uM): 0.3876%
Toxicity % ([8]; HT29, MTT, 0.625 uM): 47.33%
Toxicity % ([8]; HT29, MTT, 1.25 uM): 95.82%
Toxicity % ([8]; HT29, MTT, 2.5 uM): 95.95%
Toxicity % ([8]; HT29, MTT, 5 uM): 95.61%
Toxicity % ([8]; HT29, MTT, 10 uM): 93.71%
viability at 0.312 µM ([8]; HT29, MTT, 0.312 uM): 99.6%
viability at 0.625 µM ([8]; HT29, MTT, 0.625 uM): 52.7%
viability at 1.25 µM ([8]; HT29, MTT, 1.25 uM): 4.18%
viability at 2.5 µM ([8]; HT29, MTT, 2.5 uM): 4.05%
viability at 5 µM ([8]; HT29, MTT, 5 uM): 4.39%
viability at 10 µM ([8]; HT29, MTT, 10 uM): 6.29%
IC50 [8, 12]: 1690 ± 10 nM
IC50 ([8]; supplement viability lab report, HT29, read-out: IC50 ± SD): 750 nM
Selectivity Indices (SI) HT-29 [8, 11]: 1.15

%inh ([1]; conc 0.01 (unit not given)): 38%
%inh ([1]; conc 0.1 (unit not given)): 56%
%inh ([1]; conc 1 (unit not given)): 74%
%inh ([1]; conc 10 (unit not given)): 89%
%inh ([1]; conc 100 (unit not given)): 95%
IC50 [1]: 42 ± 2 nM
%inh ([7]; conc 0.01 (unit not given)): 43%
%inh ([7]; conc 0.1 (unit not given)): 60%
%inh ([7]; conc 1 (unit not given)): 76%
%inh ([7]; conc 10 (unit not given)): 90%
%inh ([7]; conc 100 (unit not given)): 95%
IC50 [7]: 20 ± 1 nM
SMILES: Cn1c(SCC(=O)c2ccccc2)nc(=O)c(/N=C(/CBr)c2ccccc2)c1N [Compound 7, (E)-6-Amino-5-((2-bromo-1-phenylethylidene)amino)-1-methyl-2-((2-oxo-2-phenylethyl)thio)pyrimidin-4(1H)-one]
IC50 [2, 9]: 400 ± 10 nM
viability at 0.312 µM ([2]; MTT, 0.312 uM): 57%
viability at 0.625 µM ([2]; MTT, 0.625 uM): 28.9%
viability at 1.25 µM ([2]; MTT, 1.25 uM): 16.5%
viability at 2.5 µM ([2]; MTT, 2.5 uM): 11.7%
viability at 5 µM ([2]; MTT, 5 uM): 11%
viability at 10 µM ([2]; MTT, 10 uM): 4.92%
Toxicity % ([2]; MTT, 0.312 uM): 42.95%
Toxicity % ([2]; MTT, 0.625 uM): 71.14%
Toxicity % ([2]; MTT, 1.25 uM): 83.51%
Toxicity % ([2]; MTT, 2.5 uM): 88.25%
Toxicity % ([2]; MTT, 5 uM): 88.96%
Toxicity % ([2]; MTT, 10 uM): 95.08%
Toxicity % ([3]; 0.312 uM): 0.3992%
Toxicity % ([3]; 0.625 uM): 0.1996%
Toxicity % ([3]; 1.25 uM): 2.395%
Toxicity % ([3]; 2.5 uM): 26.55%
Toxicity % ([3]; 5 uM): 68.38%
Toxicity % ([3]; 10 uM): 89.46%
IC50 [4]: 3920 ± 80 nM
viability at 0.312 µM [4]: 99.6%
viability at 0.625 µM [4]: 99.8%
viability at 1.25 µM [4]: 97.6%
viability at 2.5 µM [4]: 73.5%
viability at 5 µM [4]: 31.6%
viability at 10 µM [4]: 10.5%
IC50 [5, 10]: 1850 ± 40 nM
Toxicity % ([5]; U937, MTT, 0.312 uM): 5.991%
Toxicity % ([5]; U937, MTT, 0.625 uM): 11.66%
Toxicity % ([5]; U937, MTT, 1.25 uM): 44.55%
Toxicity % ([5]; U937, MTT, 2.5 uM): 60.35%
Toxicity % ([5]; U937, MTT, 5 uM): 70.37%
Toxicity % ([5]; U937, MTT, 10 uM): 88.56%
viability at 0.312 µM [6]: 94%
viability at 0.625 µM [6]: 88.3%
viability at 1.25 µM [6]: 55.4%
viability at 2.5 µM [6]: 39.7%
viability at 5 µM [6]: 29.6%
viability at 10 µM [6]: 11.4%
Toxicity % ([8]; HT29, MTT, 0.312 uM): 0.04307%
Toxicity % ([8]; HT29, MTT, 0.625 uM): 45.56%
Toxicity % ([8]; HT29, MTT, 1.25 uM): 86.39%
Toxicity % ([8]; HT29, MTT, 2.5 uM): 88.67%
Toxicity % ([8]; HT29, MTT, 5 uM): 93.28%
Toxicity % ([8]; HT29, MTT, 10 uM): 93.71%
viability at 0.312 µM ([8]; HT29, MTT, 0.312 uM): 100%
viability at 0.625 µM ([8]; HT29, MTT, 0.625 uM): 54.4%
viability at 1.25 µM ([8]; HT29, MTT, 1.25 uM): 13.6%
viability at 2.5 µM ([8]; HT29, MTT, 2.5 uM): 11.3%
viability at 5 µM ([8]; HT29, MTT, 5 uM): 6.72%
viability at 10 µM ([8]; HT29, MTT, 10 uM): 6.29%
IC50 [8, 12]: 790 ± 10 nM
